Key:
Assay type in all cases: cell-based
[1] = target: T1, Small conductance calcium-activated potassium channel protein 2 (Homo sapiens, UniProt Q9H2S1); assay: Inhibition of cloned SK2 channel expressed in human HEK293 cells at 10 uM
[2] = target: T1, Small conductance calcium-activated potassium channel protein 2; assay: Displacement of [125I]-apamin from cloned SK2 channel expressed in human HEK293 cells after 1 hr by liquid scintillation counting
[3] = target: T2, Small conductance calcium-activated potassium channel protein 3 (Homo sapiens, UniProt Q9UGI6); assay: Displacement of [125I]-apamin from cloned SK3 channel expressed in human HEK293 cells after 1 hr by liquid scintillation counting
[4] = target: T2, Small conductance calcium-activated potassium channel protein 3; assay: Inhibition of cloned human SK3 channel expressed in human HEK293 cells by patch clamp assay in the presence of 1 uM intracellular Ca2+
[5] = target: Small conductance calcium-activated potassium channel protein 2 (Rattus norvegicus, UniProt P70604); assay: Inhibition of cloned rat SK2 channel expressed in human HEK293 cells by patch clamp assay in the presence of 1 uM intracellular Ca2+
Small conductance calcium-activated potassium channel protein 2 (Rattus norvegicus, UniProt P70604), sequence (P70604 whole entry): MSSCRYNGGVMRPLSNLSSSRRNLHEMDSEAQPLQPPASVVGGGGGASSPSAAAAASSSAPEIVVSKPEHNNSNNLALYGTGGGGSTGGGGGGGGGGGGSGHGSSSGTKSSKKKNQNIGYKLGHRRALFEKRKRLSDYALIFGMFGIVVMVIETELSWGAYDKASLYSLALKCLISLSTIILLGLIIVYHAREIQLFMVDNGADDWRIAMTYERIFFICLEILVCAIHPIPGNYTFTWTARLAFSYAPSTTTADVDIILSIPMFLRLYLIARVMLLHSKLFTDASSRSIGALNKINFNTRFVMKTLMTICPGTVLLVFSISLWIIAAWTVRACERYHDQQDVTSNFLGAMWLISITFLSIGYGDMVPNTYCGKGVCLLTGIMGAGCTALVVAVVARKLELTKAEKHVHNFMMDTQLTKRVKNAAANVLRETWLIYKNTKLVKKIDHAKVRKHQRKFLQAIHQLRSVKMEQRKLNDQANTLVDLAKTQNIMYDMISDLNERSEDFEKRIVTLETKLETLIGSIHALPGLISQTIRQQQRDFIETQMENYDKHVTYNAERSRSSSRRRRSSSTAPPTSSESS

T1 sequence (Q9H2S1 whole entry): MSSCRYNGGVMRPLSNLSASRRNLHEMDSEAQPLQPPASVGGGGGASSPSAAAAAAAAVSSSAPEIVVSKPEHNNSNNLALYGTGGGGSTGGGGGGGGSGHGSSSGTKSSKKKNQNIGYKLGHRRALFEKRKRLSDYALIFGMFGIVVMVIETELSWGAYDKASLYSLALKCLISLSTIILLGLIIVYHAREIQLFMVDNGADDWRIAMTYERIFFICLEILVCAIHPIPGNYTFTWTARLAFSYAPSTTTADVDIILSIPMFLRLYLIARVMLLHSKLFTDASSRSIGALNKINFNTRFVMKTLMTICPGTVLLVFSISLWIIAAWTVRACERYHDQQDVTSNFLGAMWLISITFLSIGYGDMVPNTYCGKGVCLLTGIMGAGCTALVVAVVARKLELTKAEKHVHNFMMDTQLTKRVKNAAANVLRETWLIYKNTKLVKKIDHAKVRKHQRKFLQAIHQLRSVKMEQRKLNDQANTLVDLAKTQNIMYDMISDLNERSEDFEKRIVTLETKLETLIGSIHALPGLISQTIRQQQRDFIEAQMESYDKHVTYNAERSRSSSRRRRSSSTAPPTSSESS
T2 sequence (Q9UGI6 whole entry): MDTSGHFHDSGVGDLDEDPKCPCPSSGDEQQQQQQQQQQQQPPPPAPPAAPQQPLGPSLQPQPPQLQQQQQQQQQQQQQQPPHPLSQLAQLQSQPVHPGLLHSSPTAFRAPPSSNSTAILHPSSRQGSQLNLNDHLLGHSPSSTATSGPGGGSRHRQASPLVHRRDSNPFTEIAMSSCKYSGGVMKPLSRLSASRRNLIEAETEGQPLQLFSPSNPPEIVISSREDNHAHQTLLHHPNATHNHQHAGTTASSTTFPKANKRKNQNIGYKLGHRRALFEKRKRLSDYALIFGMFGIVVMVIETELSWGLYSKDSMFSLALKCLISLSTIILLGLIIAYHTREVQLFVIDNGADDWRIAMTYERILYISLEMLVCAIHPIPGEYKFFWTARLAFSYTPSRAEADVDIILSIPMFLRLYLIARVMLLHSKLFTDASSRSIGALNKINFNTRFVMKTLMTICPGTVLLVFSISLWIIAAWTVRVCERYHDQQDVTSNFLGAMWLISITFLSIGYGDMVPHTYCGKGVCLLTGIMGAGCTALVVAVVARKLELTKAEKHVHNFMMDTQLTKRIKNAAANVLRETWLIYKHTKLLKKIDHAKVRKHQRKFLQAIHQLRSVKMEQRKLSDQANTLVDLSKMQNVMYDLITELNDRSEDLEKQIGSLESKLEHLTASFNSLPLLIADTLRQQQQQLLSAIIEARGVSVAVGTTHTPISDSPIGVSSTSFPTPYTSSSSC

Structure (SMILES)	inhibition [1] [%]	Ki [2] [nM]	Ki [3] [nM]	further results
CC(C)c1cccc2c1C(Cc1cccc(CC3c4c(cccc4C(C)C)CCN3C)c1)N(C)CC2 (racemic)	41			
CC(C)c1cccc2c1C(CCCCC1c3c(cccc3C(C)C)CCN1C)N(C)CC2 (racemic)	41			
CC(C)c1cccc2cc[n+](C)c(CCCc3c4c(C(C)C)cccc4cc[n+]3C)c12		593	837	
CC(C)c1cccc2cc[n+](C)c(CCCCc3c4c(C(C)C)cccc4cc[n+]3C)c12		194	214	
CC(C)c1cccc2c1C(CCCC1c3c(cccc3C(C)C)CCN1C)N(C)CC2 (racemic)	41			

Continued, in another order:

inhibition [1] [%]	Ki [2] [nM]	Ki [3] [nM]	Structure (SMILES)	further results
	878	575	CC(C)c1cccc2cc[n+](C)c(CCCCCc3c4c(C(C)C)cccc4cc[n+]3C)c12	
41			CC(C)c1cccc2c1C(CCCCCC1c3c(cccc3C(C)C)CCN1C)N(C)CC2 (racemic)	
41			CC(C)c1cccc2c1C(Cc1ccc(CC3c4c(cccc4C(C)C)CCN3C)cc1)N(C)CC2 (racemic)	
	397	1270	CC(C)c1cccc2cc[n+](C)c(Cc3ccc(Cc4c5c(C(C)C)cccc5cc[n+]4C)cc3)c12	
	90	46	CC(C)c1cccc2cc[n+](C)c(Cc3cccc(Cc4c5c(C(C)C)cccc5cc[n+]4C)c3)c12	IC50 [4]: 2970 nM; IC50 [5]: 1600 nM
